# Assay results published in ChEMBL document CHEMBL5214929, “Updated chemical scaffolds of ABCG2 inhibitors and their structure-inhibition relationships for future development” (Eur J Med Chem, 2022).
# Assays:
# HEK293 [1] = test: Cytotoxicity against HEK293 cells expressing ABCG2-R-482 in presence of methotrexate; assay type: functional, cell-based; details: Homo sapiens
# [2] = molecular target: T1, Broad substrate specificity ATP-binding cassette transporter ABCG2 (Homo sapiens, UniProt Q9UNQ0); test: Inhibition of ABCG2 (unknown origin) in Sf9 membrane vesicles using [3H] methotrexate as substrate; assay type: cell membranes
# T1 sequence (Q9UNQ0 whole entry): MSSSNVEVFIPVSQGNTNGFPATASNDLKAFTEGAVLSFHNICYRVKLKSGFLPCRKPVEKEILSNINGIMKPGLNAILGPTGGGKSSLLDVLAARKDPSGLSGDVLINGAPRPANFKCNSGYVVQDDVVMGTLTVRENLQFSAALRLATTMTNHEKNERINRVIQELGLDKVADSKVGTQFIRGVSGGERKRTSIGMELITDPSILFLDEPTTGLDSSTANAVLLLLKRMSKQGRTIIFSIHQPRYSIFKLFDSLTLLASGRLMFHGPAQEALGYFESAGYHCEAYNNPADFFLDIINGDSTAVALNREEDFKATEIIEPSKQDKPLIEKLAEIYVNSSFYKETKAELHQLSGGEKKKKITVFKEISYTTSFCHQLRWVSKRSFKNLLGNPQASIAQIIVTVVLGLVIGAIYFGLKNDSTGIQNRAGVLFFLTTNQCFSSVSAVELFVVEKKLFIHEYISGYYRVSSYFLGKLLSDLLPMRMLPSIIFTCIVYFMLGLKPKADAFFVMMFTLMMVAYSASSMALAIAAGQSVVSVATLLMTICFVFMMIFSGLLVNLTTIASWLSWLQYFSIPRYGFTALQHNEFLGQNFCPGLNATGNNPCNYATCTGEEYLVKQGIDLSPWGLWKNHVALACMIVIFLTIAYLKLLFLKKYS
# [3] = Reversal of mitoxantrone resistance in human T8 cells; assay type: functional; details: T8 cell
# MCF7 = test: Cytotoxicity against human MCF7 cells assessed as increase in cytotoxic drug half inhibitory concentration; assay type: functional, cell-based
# [4] = molecular target: T1, Broad substrate specificity ATP-binding cassette transporter ABCG2; test: Inhibition of ABCG2 (unknown origin) overexpressing in dog MDCK-II-BCRP cells measured after 30 mins by flow cytometric analysis; assay type: cell-based
# [5] = molecular target: T1, Broad substrate specificity ATP-binding cassette transporter ABCG2; test: Inhibition of ABCG2 (unknown origin)
# HEK293 [6] = test: Cytotoxicity against HEK293 cells expressing ABCG2-482-T7 in presence of methotrexate; assay type: functional, cell-based; details: Homo sapiens
# HEK293 [7] = test: Cytotoxicity against HEK293 cells expressing ABCG2-482-R in presence of methotrexate; assay type: functional, cell-based; details: Homo sapiens
# HEK293 [8] = test: Cytotoxicity against HEK293 cells expressing ABCG2 in presence of methotrexate; assay type: functional, cell-based; details: Homo sapiens
# S1-M1-80 = test: Cytotoxicity against human S1M180 cells in presence of topotecan; assay type: functional, cell-based
# HEK293 [9] = test: Cytotoxicity against HEK293 cells expressing ABCG2-R-482 mutant assessed as decrease in mitoxantrone half inhibitory concentration; assay type: functional, cell-based; details: Homo sapiens
# HEK293 [10] = test: Cytotoxicity against HEK293 cells expressing ABCG2-R-482 wildtype assessed as decrease in mitoxantrone half inhibitory concentration; assay type: functional, cell-based; details: Homo sapiens
structure (smiles),measurement,setting,value
Nc1ncnc2c1c(-c1ccc(Oc3ccccc3)cc1)nn2C1CCCC1,IC50,HEK293 [1],57 nM
C=CC(O)C#CC#CC/C=C\CCCCCCC (stereo not given),IC50,[2],41700 nM
C=CC(O)C#CC#CC(O)/C=C\CCCCCCC (stereo not given),IC50,[2],29700 nM
COc1ccc2c3c([nH]c2c1)[C@@H](CC(C)C)N1C(=O)[C@@H](CCC(=O)OC(C)(C)C)NC(=O)[C@@H]1C3,EC90,[3],23 nM
CC(C)C[C@@H]1c2[nH]c3ccccc3c2C[C@H]2C(=O)N[C@H](CCCCNC(=O)OC(C)(C)C)C(=O)N12,EC90,[3],190 nM
COc1ccc2c3c([nH]c2c1)[C@@H](C=C(C)C)N1C(=O)[C@@H]2CCCN2C(=O)[C@@H]1C3,IC50,MCF7,1000 nM
COc1ccc(-c2c3occc3c(OC[C@H]3OC3(C)C)c3ccc(=O)oc23)cc1OC,IC50,[4],43100 nM
CC(C)C[C@@H]1c2[nH]c3ccccc3c2C[C@H]2C(=O)N[C@H](CCC(=O)OC(C)(C)C)C(=O)N12,EC90,[3],85 nM
Cn1cc(-c2cc3c(N4CCN(c5ncc([C@@](C)(N)c6ccc(F)cc6)cn5)CC4)ncnn3c2)cn1 [AVAPRITINIB],IC50,[5],1.5 nM
COc1cc2nccc(Oc3ccc(NC(=O)C4(C(=O)Nc5ccc(F)cc5)CC4)cc3)c2cc1OC [CABOZANTINIB],IC50,HEK293 [6],34 nM
same,IC50,HEK293 [7],27 nM
COc1cc2ncnc(Nc3ccc(F)c(Cl)c3)c2cc1NC(=O)/C=C/CN1CCCCC1 [DACOMITINIB ANHYDROUS],IC50,HEK293 [8],185 nM
COc1cc2c(cc1OC)CN(CCc1ccc(NC(=O)c3cccc4c(=O)c5cccc(OC)c5[nH]c34)cc1)CC2 [ELACRIDAR],EC90,[3],51 nM
Cc1cn(-c2cc(NC(=O)c3ccc(C)c(Nc4nccc(-c5cccnc5)n4)c3)cc(C(F)(F)F)c2)cn1 [NILOTINIB],IC50,HEK293 [6],147 nM
same,IC50,HEK293 [7],128 nM
C=CC(=O)Nc1cccc(Nc2nc(Nc3ccc(N4CCN(C(C)=O)CC4)cc3OC)ncc2C(F)(F)F)c1 [ROCILETINIB],IC50,HEK293 [6],7.2 nM
same,IC50,HEK293 [7],11.9 nM
COc1cc2/c(=N/c3ccc(Br)cc3F)nc[nH]c2cc1OCC1CCN(C)CC1 [VANDETANIB],IC50,S1-M1-80,1240 nM
Cc1[nH]c(/C=C2\C(=O)Nc3ccc(F)cc32)c(C)c1C(=O)N[C@H]1CCN(C(=O)N(C)C)C1 [VOROLANIB],IC50,HEK293 [9],58 nM
same,IC50,HEK293 [10],15.5 nM
